{
  "source": "patent US20050245452A1",
  "about": "“Pharmaceutical use of novispirins” (Novozymes A/S, priority 2004, published 2005)",
  "key": {"[1]": {"system": "Staphylococcus aureus (ATCC 25923)", "test": "Staphylococcus aureus wound infection in pigs (wound chambers, 4 hour time course)", "type": "in vivo, Göttinger minipigs", "settings": "1 ml applied", "protocol": "The bacterial strain, Staphylococcus aureus, used in the study was ATCC 25923. The amino acid sequence of Novispirin G10 is shown in SEQ ID NO: 16.\nNovispirin G10 was diluted in 0.01% acetic acid containing 0.1% BSA with a final concentration of 1 mg (substrate)/ml (solution); 100 micrograms/ml; 10 micrograms/ml and 1 microgram/ml. The carrier control was 0.01% acetic acid containing 0.1% BSA. As a positive control was used Synthetic Protegrin 1 (Charité, Institut f. Biochemie d. Humboldt Universität Berlin) diluted in 0.01% acetic acid containing 0.1% BSA with a final concentration of 100 micrograms/ml.\nThe chambers are made of one piece of titanium, have a screw top cover (also made of titanium) and were built in teamwork with Cranio Construct Bochum. The chambers have a height of 14 mm, an inner diameter of 25 mm and an outer diameter of 32 mm without baseplate (with baseplate: 50 mm).\nAfter providing permission to conduct experiments with vertebrates in compliance with German animal protection laws, Göttinger minipigs (Fa. Ellegaard, Dalmose, Denmark; female, 6 months old, 25-30 kg weight) were chosen to implant the chambers on. The pigs were kept at least 2 weeks in the stable, fed a standard porcine diet and housed at 20° C. to 30° C. in an atmosphere of approximately 65% humidity with a light cycle of 12 hours on and 12 hours off. The animals used for this study appeared, during the experiments, clinically healthy—rectal temperature and body weight remained normal over the observed period.\nBefore wounding the skin was surgically prepared, washed with soap and disinfected with Octenisept (S&M, Norderstedt, Germany) for five minutes. Twelve BO-Chambers were implanted on the pigs back and flank between the base of the scapula and the iliac crest. The wounds were spaced a minimum of 5 cm apart and were created in four rows parallel to the columna vertebralis, two rows on each side of the columna vertebrtalis. The exact size and shape of the wounds were ensured by a special custom-made “round-scalpel” (also built in teamwork with Cranio Construct Bochum), which has a diameter of 33 mm. Epidermal, dermal subcutaneous tissues were removed, possible bleedings stanched by bipolar diathermy. The chambers were placed with an additionally secant v-incision at positions 6 respectively 12 o'clock on the musculus thoracicus longus fascia and the muscle fascia of the external ripcage muscles. The incisions were sutured with 2/0 Monocryl followed by the closure of the chambers. Povidone-iodine salve (Betaisodonna-salve, Mundipharma, Austria) was smothered on the wound edges. The chambers were dressed with paraffin gauze (Jelonet, Smith & Nephew, Lohfelden, Germany) and sterile compresses. Dressings were changed every second day under sedation (as described above).\nBacterial Background of each chamber was measured every second day, to detect potential contamination. Only one contaminated chamber was detected. Seven days post operation ten chambers were inoculated with bacteria.\nFor bacteria progeny Staphylococcus aureus (ATCC 25923) was plated on LB-Agar plate and incubated at 37° C. for 18 hours. One colony was picked and transfered into 3 ml LB-Medium for over night culture at 37° C. at 300 rpm. Over night culture was diluted in 50 ml fresh LB-Medium and incubated for 2.5 hours at 37° C. at 200 rpm.\nBacteria were pelleted, 4000 rpm, 5 min, Mergafuge 1.0 R (Heraeus, Hanau, Germany), and resuspended in PBS. Amount of containg bacteria was detremined by OD600 nm-measurement and calculated as follows: Colony forming Unit/ml=OD600 nm×2.5×10^8 (bacteria)\nTo inoculate one chamber 5×10^8 were used.\nThe establishment of the infection was proven by the measurement of bacterial counts per chamber. All inoculated chambers were infected after two days. Chamber No. 2 keeps bacteria free.\nAt day four after infection the antimicrobial effect of the testing substrate was measured in a time course of 4 hours in duration. […]"}, "[2]": {"system": "P. acnes (erythromycin sensitive)", "test": "MIC on Propionebacterium acnes, erythromycin sensitive strain", "type": "cell-based", "protocol": "(§1) Minimal Inhibitory Concentration (MIC) of Novispirin G10 (SEQ ID NO: 16) was evaluated against P. acnes. Two strains were tested—one of which is clinically resistant to clindamycin and erythromycin."}, "[3]": {"system": "P. acnes (erythromycin resistant)", "test": "MIC on Propionebacterium acnes, erythromycin resistant strain", "type": "cell-based", "settings": "clinically resistant to clindamycin and erythromycin", "protocol": "as §1"}, "[4]": {"system": "Pseudomonas aeruginosa CF86/57388A (mucoid)", "test": "Pseudomonas aeruginosa lung infection in rats: lung pathology and lung bacteriology", "type": "in vivo, Lewis rat", "settings": "for Lung bacteriology: Percentage of animals that cleared the bacteria in the lungs / Lung pathological scores: animals with Score 1 + 2 / Lung pathological scores: animals with Score 3 / Lung pathological scores: animals with Score 4: 0.1 mg/ml, 0.1 ml/rat intratracheally at hour 0 and 3", "protocol": "The bacterial strain, Pseudomonas aeruginosa, used in the study is CF86/57388A (1997), which is isolated from a cystic fibrosis patient and keeps stable mucoid phenotype. The rat strain used in the study is Lewis rat (7 weeks old, female) imported from Germany. Both bacterial challenge and drug administration were done intratracheally. All rats were challenged with mucoid P. aeruginosa in alginate. The concentration of the bacteria was 1×10^10 CFU/ml and each rat received 0.1 ml (1×10^9 CFU) bacteria. Control group received placebo (sterile saline, 0.1 ml/rat) twice at hour 0 and 3, and the Novispirin G10 group received the peptide (0.1 mg/ml, 0.1 ml/rat) twice at hour 0 and 3. The animals were sacrificed on day 3, 5, 7 and 10 after challenge for parameters evaluation."}},
  "data": [
    {"substance": "Novispirin G10: novispirin antimicrobial polypeptide; amino acid sequence shown in SEQ ID NO: 16 (KNLRRIIRKGIHIIKKYG; Synthetic antimicrobial peptide)", "values": [
      {"measurement": "Mean CFU per ml sample volume (chamber fluid)", "setting": "[1]; 1 mg/ml, 0 hours", "value": 10700000, "unit": "CFU/ml"},
      {"measurement": "Mean CFU per ml sample volume (chamber fluid)", "setting": "[1]; 1 mg/ml, 1 hour", "value": 2817, "unit": "CFU/ml"},
      {"measurement": "Mean CFU per ml sample volume (chamber fluid)", "setting": "[1]; 1 mg/ml, 2 hours", "value": 2100, "unit": "CFU/ml"},
      {"measurement": "Mean CFU per ml sample volume (chamber fluid)", "setting": "[1]; 1 mg/ml, 3 hours", "value": 833, "unit": "CFU/ml"},
      {"measurement": "Mean CFU per ml sample volume (chamber fluid)", "setting": "[1]; 1 mg/ml, 4 hours", "value": 1233, "unit": "CFU/ml"},
      {"measurement": "Mean CFU per ml sample volume (chamber fluid)", "setting": "[1]; 1 microgram/ml, 0 hours", "value": 9060000, "unit": "CFU/ml"},
      {"measurement": "Mean CFU per ml sample volume (chamber fluid)", "setting": "[1]; 1 microgram/ml, 1 hour", "value": 2508333, "unit": "CFU/ml"},
      {"measurement": "Mean CFU per ml sample volume (chamber fluid)", "setting": "[1]; 1 microgram/ml, 2 hours", "value": 159067, "unit": "CFU/ml"},
      {"measurement": "Mean CFU per ml sample volume (chamber fluid)", "setting": "[1]; 1 microgram/ml, 3 hours", "value": 33858, "unit": "CFU/ml"},
      {"measurement": "Mean CFU per ml sample volume (chamber fluid)", "setting": "[1]; 1 microgram/ml, 4 hours", "value": 148333, "unit": "CFU/ml"},
      {"measurement": "Mean CFU per ml sample volume (chamber fluid)", "setting": "[1]; 10 micrograms/ml, 0 hours", "value": 5065000, "unit": "CFU/ml"},
      {"measurement": "Mean CFU per ml sample volume (chamber fluid)", "setting": "[1]; 10 micrograms/ml, 1 hour", "value": 440500, "unit": "CFU/ml"},
      {"measurement": "Mean CFU per ml sample volume (chamber fluid)", "setting": "[1]; 10 micrograms/ml, 2 hours", "value": 304500, "unit": "CFU/ml"},
      {"measurement": "Mean CFU per ml sample volume (chamber fluid)", "setting": "[1]; 10 micrograms/ml, 3 hours", "value": 40910, "unit": "CFU/ml"},
      {"measurement": "Mean CFU per ml sample volume (chamber fluid)", "setting": "[1]; 10 micrograms/ml, 4 hours", "value": 1563188, "unit": "CFU/ml"},
      {"measurement": "Mean CFU per ml sample volume (chamber fluid)", "setting": "[1]; 100 micrograms/ml, 0 hours", "value": 1330000, "unit": "CFU/ml"},
      {"measurement": "Mean CFU per ml sample volume (chamber fluid)", "setting": "[1]; 100 micrograms/ml, 1 hour", "value": 790033, "unit": "CFU/ml"},
      {"measurement": "Mean CFU per ml sample volume (chamber fluid)", "setting": "[1]; 100 micrograms/ml, 2 hours", "value": 195125, "unit": "CFU/ml"},
      {"measurement": "Mean CFU per ml sample volume (chamber fluid)", "setting": "[1]; 100 micrograms/ml, 3 hours", "value": 142765, "unit": "CFU/ml"},
      {"measurement": "Mean CFU per ml sample volume (chamber fluid)", "setting": "[1]; 100 micrograms/ml, 4 hours", "value": 8467, "unit": "CFU/ml"},
      {"measurement": "Minimal Inhibitory Concentration (MIC)", "setting": "[2]", "value": 2},
      {"measurement": "Minimal Inhibitory Concentration (MIC)", "setting": "[3]", "value": 1},
      {"measurement": "Lung bacteriology: Percentage of animals that cleared the bacteria in the lungs", "setting": "[4]; Day 3", "value": "(30%)"},
      {"measurement": "Lung bacteriology: Percentage of animals that cleared the bacteria in the lungs", "setting": "[4]; Day 5", "value": "(50%)"},
      {"measurement": "Lung bacteriology: Percentage of animals that cleared the bacteria in the lungs", "setting": "[4]; Day 7", "value": "(90%)"},
      {"measurement": "Lung bacteriology: Percentage of animals that cleared the bacteria in the lungs", "setting": "[4]; Day 10", "value": "(100%)"},
      {"measurement": "Gross lung pathology compared with the placebo control group", "setting": "[4]; all 4 time points (day 3, 5, 7, 10)", "value": "significantly milder lung pathology"},
      {"measurement": "Histopathology of lungs", "setting": "[4]; day 3", "value": "lung consolidation with chronic inflammation is the dominant change"},
      {"measurement": "Lung bacteriology compared to the control group", "setting": "[4]; day 3", "value": 175, "unit": "times lower"},
      {"measurement": "Severity of lung scoring versus control group", "setting": "[4]; day 3", "value": "no significant difference in the severity of lung scoring"},
      {"measurement": "Gross lung pathology: lung consolidation area", "setting": "[4]; day 3, versus placebo control", "value": "the consolidation area was much smaller"},
      {"measurement": "Lung pathological scores: animals with Score 1 + 2", "setting": "[4]; day 3 after challenge", "value": "0/14 = 0%"},
      {"measurement": "Lung pathological scores: animals with Score 3", "setting": "[4]; day 3 after challenge", "value": "3/14 = 21.4%"},
      {"measurement": "Lung pathological scores: animals with Score 4", "setting": "[4]; day 3 after challenge", "value": "11/14 = 78.6%"},
      {"measurement": "Histopathology of lungs", "setting": "[4]; day 5", "value": "milder chronic inflammation"},
      {"measurement": "Lung pathological scores: animals with Score 1 + 2", "setting": "[4]; day 5 after challenge", "value": "0/14 = 0%"},
      {"measurement": "Lung pathological scores: animals with Score 3", "setting": "[4]; day 5 after challenge", "value": "10/14 = 71.4%"},
      {"measurement": "Lung pathological scores: animals with Score 4", "setting": "[4]; day 5 after challenge", "value": "0/14 = 0%"},
      {"measurement": "Lung pathological scores: animals with Score 1 + 2", "setting": "[4]; day 7 after challenge", "value": "6/11 = 54.5%"},
      {"measurement": "Lung pathological scores: animals with Score 3", "setting": "[4]; day 7 after challenge", "value": "5/11 = 45.5%"},
      {"measurement": "Lung pathological scores: animals with Score 4", "setting": "[4]; day 7 after challenge", "value": "0/11 = 0%"},
      {"measurement": "Histopathology of lungs", "setting": "[4]; day 10", "value": "the lung pathology was tended to be cured"},
      {"measurement": "Lung pathological scores: animals with Score 1 + 2", "setting": "[4]; day 10 after challenge", "value": "11/14 = 78.6%"},
      {"measurement": "Lung pathological scores: animals with Score 3", "setting": "[4]; day 10 after challenge", "value": "3/14 = 21.4%"},
      {"measurement": "Lung pathological scores: animals with Score 4", "setting": "[4]; day 10 after challenge", "value": "0/14 = 0%"},
      {"measurement": "Gross lung pathology: dominant finding", "setting": "[4]; days 5, 7 and 10", "value": "small lung atelectasis, no abscess and adhesion found"},
      {"measurement": "Severity of lung scoring versus control group", "setting": "[4]; from day 5 on", "value": "significantly milder lung pathology"},
      {"measurement": "Histopathology of lungs in comparison with the placebo control group", "setting": "[4]; overall, intratracheal treatment", "value": "milder lung inflammation and recover remarkably faster"}
    ]}
  ]
}
